Test results: patent US20230157952A1, “METHOD FOR IMPROVING THE STABILITY OF A PHARMACEUTICAL COMPOSITION COMPRISING A HIGH PENETRATION DRUG, AND THE PHARMACEUTICAL COMPOSITION OBTAINED THEREFROM” (Techfields Inc., priority 2020, published 2023)

Assays:
[1] = Effect of pH value on the stability of the solution (purity); assay type: physicochemical; conditions: 25° C.
[2] = Effect of temperature (and pH) on the stability of the solution (purity); assay type: physicochemical; conditions: 7% solution in water
[3] = Effect of concentration on the stability of the solution (purity over time); conditions: in water at 25° C.
[4] = day 0, pH 1.0, 7% in 25% ethanol
[5] = day 0, pH 2.0, 7% in 25% ethanol
[6] = day 0, pH 3.0, 7% in 25% ethanol
[7] = day 0, pH 3.7, 7% in 25% ethanol
[8] = day 0, pH 4.0, 7% in 25% ethanol
[9] = day 0, pH 4.3, 7% in 25% ethanol
[10] = day 0, pH 4.6, 7% in 25% ethanol
[11] = day 0, pH 5.0, 7% in 25% ethanol
[12] = day 0, pH 6.0, 7% in 25% ethanol
[13] = day 0, pH 7.0, 7% in 25% ethanol
[14] = day 0, pH 8.0, 7% in 25% ethanol
[15] = day 28, pH 1.0, 7% in 25% ethanol
[16] = day 28, pH 2.0, 7% in 25% ethanol
[17] = day 28, pH 3.0, 7% in 25% ethanol
[18] = day 28, pH 3.7, 7% in 25% ethanol
[19] = day 28, pH 4.0, 7% in 25% ethanol
[20] = day 28, pH 4.3, 7% in 25% ethanol
[21] = day 28, pH 4.6, 7% in 25% ethanol
[22] = day 28, pH 5.0, 7% in 25% ethanol
[23] = day 28, pH 6.0, 7% in 25% ethanol
[24] = day 28, pH 7.0, 7% in 25% ethanol
[25] = day 28, pH 8.0, 7% in 25% ethanol

## CC(C)Cc1ccc([C@@H](C)C(=O)OCCC2CCNCC2)cc1.Cl (racemic) [C-8, 4-piperidineethyl (R,S)-2-(p-isobutylphenyl)propionate•HCl salt]
[1]; [4]
  Purity(%) from day 0-28: 97.6 ± 0.4%
[1]; [5]
  Purity(%) from day 0-28: 98.0 ± 0.3%
[1]; [6]
  Purity(%) from day 0-28: 98.1 ± 0.2%
[1]; [7]
  Purity(%) from day 0-28: 98.3 ± 0.3%
[1]; [8]
  Purity(%) from day 0-28: 98.4 ± 0.3%
[1]; [9]
  Purity(%) from day 0-28: 98.4 ± 0.2%
[1]; [10]
  Purity(%) from day 0-28: 98.3 ± 0.2%
[1]; [11]
  Purity(%) from day 0-28: 98.3 ± 0.4%
[1]; [12]
  Purity(%) from day 0-28: 98.2 ± 0.3%
[1]; [13]
  Purity(%) from day 0-28: 97.9 ± 0.3%
[1]; [14]
  Purity(%) from day 0-28: 97.6 ± 0.5%
[1]; [15]
  Purity(%) from day 0-28: 68.4 ± 0.4%
[1]; [16]
  Purity(%) from day 0-28: 87.3 ± 0.3%
[1]; [17]
  Purity(%) from day 0-28: 87.3 ± 0.3%
[1]; [18]
  Purity(%) from day 0-28: 95.0 ± 0.2%
[1]; [19]
  Purity(%) from day 0-28: 96.1 ± 0.3%
[1]; [20]
  Purity(%) from day 0-28: 96.3 ± 0.3%
[1]; [21]
  Purity(%) from day 0-28: 96.3 ± 0.2%
[1]; [22]
  Purity(%) from day 0-28: 89.7 ± 0.3%
[1]; [23]
  Purity(%) from day 0-28: 87.3 ± 0.3%
[1]; [24]
  Purity(%) from day 0-28: 48.3 ± 0.4%
[1]; [25]
  Purity(%) from day 0-28: 34.2 ± 0.3%

## CC(C)Cc1ccc([C@@H](C)C(=O)OCCN2CCCC2)cc1.Cl (racemic) [C-9, 1-pyrrolidineethyl (R,S)-2-(p-isobutylphenyl)propionate•HCl salt]
[1]; [4]
  Purity(%) from day 0-28: 98.0 ± 0.3%
[1]; [5]
  Purity(%) from day 0-28: 98.2 ± 0.4%
[1]; [6]
  Purity(%) from day 0-28: 98.5 ± 0.3%
[1]; [7]
  Purity(%) from day 0-28: 98.6 ± 0.4%
[1]; [8]
  Purity(%) from day 0-28: 98.6 ± 0.3%
[1]; [9]
  Purity(%) from day 0-28: 98.7 ± 0.2%
[1]; [10]
  Purity(%) from day 0-28: 98.6 ± 0.3%
[1]; [11]
  Purity(%) from day 0-28: 98.5 ± 0.4%
[1]; [12]
  Purity(%) from day 0-28: 98.4 ± 0.5%
[1]; [13]
  Purity(%) from day 0-28: 98.1 ± 0.5%
[1]; [14]
  Purity(%) from day 0-28: 97.9 ± 0.5%
[1]; [15]
  Purity(%) from day 0-28: 68.3 ± 0.2%
[1]; [16]
  Purity(%) from day 0-28: 87.7 ± 0.3%
[1]; [17]
  Purity(%) from day 0-28: 87.7 ± 0.2%
[1]; [18]
  Purity(%) from day 0-28: 95.5 ± 0.3%
[1]; [19]
  Purity(%) from day 0-28: 96.3 ± 0.3%
[1]; [20]
  Purity(%) from day 0-28: 96.4 ± 0.2%
[1]; [21]
  Purity(%) from day 0-28: 96.4 ± 0.3%
[1]; [22]
  Purity(%) from day 0-28: 88.6 ± 0.3%
[1]; [23]
  Purity(%) from day 0-28: 89.0 ± 0.4%
[1]; [24]
  Purity(%) from day 0-28: 48.1 ± 0.3%
[1]; [25]
  Purity(%) from day 0-28: 34.4 ± 0.4%

## CCN(CC)CCOC(=O)CC1=C(C)C(=Cc2ccc([S+](C)[O-])cc2)c2ccc(F)cc21.Cl (stereo not shown) [2-(diethylamino)ethyl 5-fluoro-2-methyl-1-[[4-(methylsulfinyl)phenyl]methylene]-1H-indene-3-acetate•HCl]
[2]
  Stability of the solution at a temperature higher than 40° C. and a pH lower than 3 or greater than 6: not stable
[3]; 0.01 wt %
  Purity at Day 3: 82.3%
  Purity at Day 7: 71.2%
  Purity at Day 14: 59.4%
  Purity at Day 21: 50.4%
  Purity at Day 28: 43.7%
  Purity at hr 0: 97.1%
[3]; 0.1 wt %
  Purity at Day 3: 95.7%
  Purity at Day 7: 93.6%
  Purity at Day 14: 89.8%
  Purity at Day 21: 84.4%
  Purity at Day 28: 78.9%
  Purity at hr 0: 97.2%
[3]; 1 wt %
  Purity at Day 3: 96.2%
  Purity at Day 7: 95.2%
  Purity at Day 14: 93.1%
  Purity at Day 21: 91.5%
  Purity at Day 28: 90.1%
  Purity at hr 0: 97.3%
[3]; 3 wt %
  Purity at Day 3: 96.7%
  Purity at Day 7: 96.3%
  Purity at Day 14: 95.0%
  Purity at Day 21: 94.1%
  Purity at Day 28: 93.1%
  Purity at hr 0: 97.3%
[3]; 5 wt %
  Purity at Day 3: 97.3%
  Purity at Day 7: 97.1%
  Purity at Day 14: 96.7%
  Purity at Day 21: 96.2%
  Purity at Day 28: 95.4%
  Purity at hr 0: 97.5%
[3]; 7 wt %
  Purity at Day 3: 97.4%
  Purity at Day 7: 97.3%
  Purity at Day 14: 97.1%
  Purity at Day 21: 96.6%
  Purity at Day 28: 96.4%
  Purity at hr 0: 97.6%
[3]; 8 wt %
  Purity at Day 3: 97.4%
  Purity at Day 7: 97.2%
  Purity at Day 14: 96.9%
  Purity at Day 21: 96.8%
  Purity at Day 28: 96.5%
  Purity at hr 0: 97.5%
[3]; 10 wt %
  Purity at Day 3: 97.5%
  Purity at Day 7: 97.3%
  Purity at Day 14: 97.0%
  Purity at Day 21: 97.0%
  Purity at Day 28: 96.7%
  Purity at hr 0: 97.5%
[3]; 15 wt %
  Purity at Day 3: 97.4%
  Purity at Day 7: 97.4%
  Purity at Day 14: 97.1%
  Purity at Day 21: 97.1%
  Purity at Day 28: 96.8%
  Purity at hr 0: 97.6%
[3]; 20 wt %
  Purity at Day 3: 97.4%
  Purity at Day 7: 97.6%
  Purity at Day 14: 97.2%
  Purity at Day 21: 97.1%
  Purity at Day 28: 96.8%
  Purity at hr 0: 97.6%
[3]; 30 wt %
  Purity at Day 3: 97.5%
  Purity at Day 7: 97.5%
  Purity at Day 14: 97.3%
  Purity at Day 21: 97.0%
  Purity at Day 28: 96.7%
  Purity at hr 0: 97.7%
[3]; 50 wt %
  Purity at Day 3: 97.5%
  Purity at Day 7: 97.5%
  Purity at Day 14: 97.2%
  Purity at Day 21: 96.8%
  Purity at Day 28: 96.8%
  Purity at hr 0: 97.7%
[3]
  Stability when the concentration is 0.1% or lower: not stable
